pIC50: −log10 of the molar value.
How the values were obtained:
[1] = In vitro cytotoxicity evaluated in mouse heart endotheliaoma cell (MHEC5-T) after incubation of the cells for 1 hr; format: functional, cell-based
[2] = In vitro cytotoxicity evaluated in mouse heart endotheliaoma cell (MHEC5-T) after incubation of the cells for 5 days; format: functional, cell-based; settings: 120 h
Mus musculus = experiment: Vascular shutdown expressed as vessel density decrease in percent of the control at the dose of 100 mg/kg; format: functional
HT-29 = experiment: Cytotoxicity evaluated against colon cancer cell line (HT-29); format: functional, cell-based; settings: Homo sapiens

COc1ccc(/C=C\c2cc(OC)c(OC)c(OC)c2)cc1OP(=O)([O-])Oc1cc(/C=C\c2cc(OC)c(OC)c(OC)c2)ccc1OC.[Na+]
pIC50 [1]: < 4.60
pIC50 [2]: 6.29
Vessel density decrease vs control (Mus musculus): 0%

COc1ccc(/C=C\c2cc(OC)c(OC)c(OC)c2)cc1OP(=O)(O)OC.N
pIC50 [1]: 4.42
pIC50 [2]: 7.15
Vessel density decrease vs control (Mus musculus): 0%

COc1ccc(/C=C\c2cc(OC)c(OC)c(OC)c2)cc1OCCCS(=O)(=O)[O-].[Na+]
pIC50 [1]: < 4.60
pIC50 [2]: < 4.60
Vessel density decrease vs control (Mus musculus): 10%

COc1ccc(/C=C\c2cc(OC)c(OC)c(OC)c2)cc1O [COMBRETASTATIN A4]
pIC50 [1]: 5.98
pIC50 [2]: 8.40
Vessel density decrease vs control (Mus musculus): 71%

COc1ccc(/C=C\c2cc(OC)c(OC)c(OC)c2)cc1OP(=O)(O)Oc1cccc(Cl)c1.N
pIC50 [1]: < 4.60
pIC50 [2]: 5.52
Vessel density decrease vs control (Mus musculus): 90%

CCCCCCCCOP(=O)(O)Oc1cc(/C=C\c2cc(OC)c(OC)c(OC)c2)ccc1OC.N
pIC50 [1]: 4.60
pIC50 [2]: 7.15
Vessel density decrease vs control (Mus musculus): 89%

CCCCOP(=O)(OCCCC)Oc1cc(/C=C\c2cc(OC)c(OC)c(OC)c2)ccc1OC
pIC50 [1]: 5.10
pIC50 [2]: 6.59
Vessel density decrease vs control (Mus musculus): 0%

COc1ccc(/C=C\c2cc(OC)c(OC)c(OC)c2)cc1OP(=O)(O)OCC(F)(F)F.N
pIC50 [1]: 5.00
pIC50 [2]: 7.22
Vessel density decrease vs control (Mus musculus): 0%

COc1ccc(/C=C\c2cc(OC)c(OC)c(OC)c2)cc1OP(=O)([O-])[O-].[Na+].[Na+] [FOSBRETABULIN DISODIUM]
pIC50 (HT-29): 6.70
pIC50 [1]: 6.10
pIC50 [2]: 8.70
Vessel density decrease vs control (Mus musculus): 88%

COc1ccc(/C=C\c2cc(OC)c(OC)c(OC)c2)cc1OP(=O)(O)OC1CCCCC1.N
pIC50 [1]: < 4.60
pIC50 [2]: 5.52
Vessel density decrease vs control (Mus musculus): 0%

COc1ccc(/C=C\c2cc(OC)c(OC)c(OC)c2)cc1OP(=O)(OC)OC
pIC50 [1]: 4.46
pIC50 [2]: 6.89
Vessel density decrease vs control (Mus musculus): 20%

Source: ChEMBL document CHEMBL1136422, “Synthesis, in vitro, and in vivo evaluation of phosphate ester derivatives of combretastatin A-4” (Bioorg Med Chem Lett, 2003)
